The target in test [1] is N337A mutant of P. aeruginosa dihydropyrimidinase (Pseudomonas aeruginosa, UniProt Q9I676, N337A). Nature of the test: Fluorescence quenching of the N337A mutant. Format: binding, Pseudomonas aeruginosa PAO1. The settings on record: for Red shift in λmax: N337A mutant, from 333.5 nm. The method, then:
The dihydropyrimidinase mutants (H59A, H61A, K150A, Y155A, H183A, H239A, S289A, D316A, and N337A) were generated according to the manufacturer’s protocol (Stratagene, LaJolla, CA). The presence of the mutation was verified by DNA sequencing in each construct.
(§1) The dissociation constants (K d) of dihydropyrimidinase was determined using the fluorescence quenching method as previously described for allantoinase, dihydroorotase, and DnaB helicase. An aliquot of each compound was added into the solution containing dihydropyrimidinase (0.8 μM), 50 mM HEPES at pH 7.0. The decrease in intrinsic fluorescence of protein was measured at 334.5 nm upon excitation at 279 nm and 25°C with a spectrofluorimeter (Hitachi F-2700; Hitachi High-Technologies, Tokyo, Japan). At least seven data points were used to calculate each K d. Each data point was an average of 2–3 determinants, and the difference of the determinants was within 10%. The K d was obtained by the equation: ΔF = ΔFmax-K d(ΔF/[compound]) (Enzyme Kinetics module of Sigma-Plot; Systat Software, Chicago, IL, USA).

For test [2], the target named is P. aeruginosa dihydropyrimidinase (Pseudomonas aeruginosa, UniProt Q9I676). Description: Fluorescence quenching of wild-type dihydropyrimidinase. Format: binding. The settings on record: for Quenching of intrinsic fluorescence / Red shift in emission wavelength: wild-type enzyme; for Quenching of intrinsic fluorescence: 50 μM compound; for Red shift in emission wavelength: λmax from 333.5 nm. As to the method:
as §1

Test [3] deals with T1, dihydropyrimidinase from P. aeruginosa PAO1 (Pseudomonas aeruginosa, UniProt Q9I676). Nature of the test: Spectrophotometric enzyme assay: inhibition of dihydropyrimidinase. The settings on record: for Inhibitory effect on dihydropyrimidinase activity: 5-propyl-hydantoin or dihydrouracil as substrate. Format: biochemical. The method, then:
(§2) A rapid spectrophotometric assay was used to determine the enzymatic activity according to a previously described protocol for hydantoinase, allantoinase, dihydroorotase, and imidase. Dihydrouracil, 5-propyl-hydantoin, and phthalimide were used as substrates. Unless explicitly stated otherwise, dihydrouracil (2 mM) was used as the substrate in the standard assay of dihydropyrimidinase. Briefly, the decrease in absorbancy at 230, 248, and 298 nm was measured upon hydrolysis of dihydrouracil, 5-propyl-hydantoin, and phthalimide as the substrate at 25°C, respectively. To start the reaction, the purified dihydropyrimidinase (10–70 μg) was added to a 2 mL solution containing the substrate and 100 mM Tris–HCl (pH 8.0). Substrate hydrolysis was monitored with a UV/vis spectrophotometer (Hitachi U 3300, Hitachi High-Technologies, Tokyo, Japan). The extinction coefficient of each substrate was determined experimentally by direct measurement with a spectrophotometer. The extinction coefficients of dihydrouracil, 5-propyl-hydantoin, and phthalimide were 0.683 mM^-1cm^-1 at 230 nm, 0.0538 mM^-1cm^-1 at 248 nm, and 3.12 mM^-1cm^-1 at 298 nm, respectively. The initial rates of change were a function of enzyme concentration within the absorbance range of 0.01–0.18 min^-1. A unit of activity was defined as the amount of enzyme catalyzing the hydrolysis of 1 μmol substrate/min, and the specific activity was expressed in terms of units of activity per milligram of enzyme. The kinetic parameters K m and V max were determined from a non-linear plot by fitting the hydrolyzing rate from individual experiments to the Michaelis–Menten equation (Enzyme Kinetics module of Sigma-Plot; Systat Software, Chicago, IL, USA).

Test [4] concerns the target T1, dihydropyrimidinase from P. aeruginosa PAO1. Format: biochemical.
For test [5] the target is unchanged. Nature of the test: Substrate specificity / Michaelis-Menten kinetics of dihydropyrimidinase. Format: biochemical. The settings on record: for K m / V max / V max/K m: compound as substrate; for Fold: V max/K m relative to dihydrouracil. As to the method:
as §2

Where [6] appears, read: IC50, 5-propyl-hydantoin as substrate.
[7] abbreviates: IC50, dihydrouracil as substrate.
Where [8] appears, read: 40 μM dihydromyricetin, dihydrouracil substrate.
Where [9] appears, read: metal ion 1 mM added to reaction mixture, enzyme purified without metal supplement, dihydrouracil substrate.
Where [10] appears, read: specific activity relative to no metal added, metal ion 1 mM.
Setting [11] is: substrate and inhibitor analogs of other cyclic amidohydrolases, read-out: IC50.

Entries after “also recorded” stand apart in the source; their conditions may differ. Read-outs that look alike come from different tables or passages of the source.

This note sets out measurements from paper PMC4437985, “Inhibition of a Putative Dihydropyrimidinase from Pseudomonas aeruginosa PAO1 by Flavonoids and Substrates of Cyclic Amidohydrolases” (PLoS ONE, 2015).

The Kd is a measure of binding affinity in units of concentration. Low values mean tighter binding, high ones weaker binding. The term IC50 denotes the concentration that inhibits the measured activity by half.

Sequence of N337A mutant of P. aeruginosa dihydropyrimidinase (Q9I676 whole entry N337A): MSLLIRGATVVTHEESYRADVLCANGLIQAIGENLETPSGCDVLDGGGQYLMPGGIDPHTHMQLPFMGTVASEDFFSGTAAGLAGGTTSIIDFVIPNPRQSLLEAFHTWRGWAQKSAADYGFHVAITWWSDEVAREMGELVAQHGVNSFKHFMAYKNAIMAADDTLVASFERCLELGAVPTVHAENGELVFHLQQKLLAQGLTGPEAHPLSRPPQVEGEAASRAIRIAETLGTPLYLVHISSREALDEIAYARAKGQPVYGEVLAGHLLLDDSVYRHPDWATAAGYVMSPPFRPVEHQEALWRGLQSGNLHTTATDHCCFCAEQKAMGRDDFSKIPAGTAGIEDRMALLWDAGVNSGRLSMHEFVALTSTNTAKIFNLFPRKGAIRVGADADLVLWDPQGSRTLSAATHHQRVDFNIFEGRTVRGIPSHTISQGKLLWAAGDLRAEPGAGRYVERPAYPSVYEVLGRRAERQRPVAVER
T1 sequence (Q9I676 whole entry): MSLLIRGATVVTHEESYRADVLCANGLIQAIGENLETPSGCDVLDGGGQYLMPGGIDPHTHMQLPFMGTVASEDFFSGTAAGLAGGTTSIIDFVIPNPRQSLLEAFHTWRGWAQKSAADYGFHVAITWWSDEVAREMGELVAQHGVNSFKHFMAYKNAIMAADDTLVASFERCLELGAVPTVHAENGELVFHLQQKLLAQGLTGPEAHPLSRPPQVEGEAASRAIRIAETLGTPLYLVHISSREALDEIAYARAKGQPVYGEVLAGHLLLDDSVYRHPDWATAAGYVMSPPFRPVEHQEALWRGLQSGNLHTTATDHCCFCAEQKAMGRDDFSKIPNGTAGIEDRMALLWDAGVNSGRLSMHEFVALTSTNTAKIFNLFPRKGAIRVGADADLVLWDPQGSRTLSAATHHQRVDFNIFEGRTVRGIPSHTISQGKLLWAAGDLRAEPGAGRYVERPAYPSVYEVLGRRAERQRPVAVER
Sequence of P. aeruginosa dihydropyrimidinase (Q9I676 whole entry): as above

Turning to `O=c1c(O)c(-c2cc(O)c(O)c(O)c2)oc2cc(O)cc(O)c12` [myricetin], the “Red shift in λmax” value in test [1] is reported as ~ 7.5 nm. Also, in test [2], the Kd was 28.8 ± 2.2 µM, the “Quenching of intrinsic fluorescence” value is recorded as 56.2% and the “Red shift in emission wavelength” value is on record as ~ 7 nm. For the same compound, the “Inhibitory effect on dihydropyrimidinase activity” value in test [3] is given as “strongly inhibit”. Further, the IC50 in test [3] (setting [6]) worked out at 63 ± 3 µM. The compound further yielded an IC50 in test [3] (setting [7]) of 83 ± 3 µM. Also, in test [3] (dihydrouracil as substrate), the “Inhibitory effect” value is on record as “significant”.

Take `[Cl-].[Cl-].[Co+2]` [CoCl2]: in test [4], the “Effect of metal addition on dihydropyrimidinase activity” value (“Effect of metal addition” for short) is recorded as “activated”, the Fold is listed as 7.1, the Specific activity amounted to 5.80 ± 0.16 µmol/mg/min and the “Specific activity toward dihydrouracil” value amounted to 5.9 ± 0.4 µmol/mg/min.

Consider `O=C1c2c(O)cc(O)cc2O[C@H](c2cc(O)c(O)c(O)c2)[C@H]1O` [dihydromyricetin], for which, in test [1], the Kd is 24.1 ± 1.7 µM and the “Red shift in λmax” value was ~ 23.5 nm. Also, in test [2], the dissociation constant (Kd) was 22.6 µM, the “Quenching of intrinsic fluorescence” value turned out to be 89.1% and the “Red shift in emission wavelength” value is recorded as ~ 25 nm. Moreover, in test [3], the “Inhibition stronger than the substrate analogs” value is > 3 orders of magnitude and the “Inhibitory effect on dihydropyrimidinase activity” value is given as “significant inhibitory effect”. Also, in test [3] (setting [8]), the “K m in the presence of inhibitor” value turned out to be 1600 ± 200 µM and the “V max in the presence of inhibitor” value stood at 5.4 ± 0.4 µmol/mg/min. Besides, in test [3] (40 μM inhibitor, different concentrations of dihydrouracil), the “Type of inhibition (Lineweaver-Burk plot)” value is given as “competitive inhibitor”. Besides, the concentration for half-maximal inhibition (IC50) in test [3] (setting [6]) worked out at 40 µM. Also, in test [3] (setting [7]), the concentration for half-maximal inhibition (IC50) came to 48 µM.

For the compound `[Cl][Ni][Cl]` [NiCl2], in test [4] (1 mM added to reaction mixture), the “Effect of metal addition” value is “not useful”. In addition, in test [4] (setting [9]), the Specific activity came to 0.91 ± 0.06 µmol/mg/min. For the same compound, the Fold in test [4] (setting [10]) is 1.1.

Consider `Nc1nc[nH]n1` [3-amino-1,2,4-triazole], for which, in test [3], the “Concentration that affected enzyme activity” value was 100 to 750 mM, the “IC50 range” value is “within the millimolar range” and the “Inhibitory effect on dihydropyrimidinase activity” value is listed as “slightly inhibit”.

Consider `[Cl-].[Cl-].[Mg+2]` [MgCl2], for which the “Effect of metal addition” value in test [4] (1 mM added to reaction mixture) is recorded as “not useful”. In addition, in test [4] (setting [9]), the Specific activity was determined as 0.82 ± 0.05 µmol/mg/min. This compound also returned a Fold in test [4] (setting [10]) of 1.0.

`O=c1c(O)c(-c2ccc(O)c(O)c2)oc2cc(O)cc(O)c12` [quercetin]: the “Inhibitory effect on dihydropyrimidinase activity” value in test [3] is reported as “insignificant”.

As for `[Cl-].[Cl-].[Zn+2]` [ZnCl2], the “Effect of metal addition” value in test [4] (1 mM added to reaction mixture) is “activated”. In addition, the Specific activity in test [4] (setting [9]) was found to be 2.90 ± 0.10 µmol/mg/min. For the same compound, the Fold in test [4] (setting [10]) is recorded as 3.5.

`[Cl][Mn][Cl]` [MnCl2]: in test [4] (1 mM added to reaction mixture), the “Effect of metal addition” value was “activated”. For the same compound, the Specific activity in test [4] (setting [9]) was 1.72 ± 0.09 µmol/mg/min. In test [4] (setting [10]), this compound gave a Fold of 2.1.

For the compound `O=c1c(O)c(-c2ccc(O)cc2)oc2cc(O)cc(O)c12` [kaempferol], the “Inhibitory effect” value in test [3] (5-propyl-hydantoin as substrate) is reported as “only slightly inhibited”; in test [3] (dihydrouracil as substrate), “significant”. Besides, the IC50 in test [3] (dihydrouracil as substrate, read-out: IC50) was determined as 50 ± 2 µM.

As for `O=C1CC(C(=O)O)NC(=O)N1` (centres unmarked) [dihydroorotate], in test [5], the K m result was “Not hydrolyzed” and the V max result was “Not hydrolyzed”. In addition, in test [3], the “IC50 range” value is listed as “within the millimolar range” and the “Inhibitory effect on dihydropyrimidinase activity” value is “slightly inhibit; also recorded: only slightly inhibited”. The 50% inhibitory concentration (IC50) in test [3] (setting [11]) was ~30000 µM.

As to `O=C1NC(=O)c2ccccc21` [phthalimide], in test [5], the “Catalytic efficiency toward dihydrouracil higher than toward this substrate” value is reported as “fourfold”, the Fold was 0.25, the K m worked out at 1000 ± 300 µM and the V max worked out at 2.7 ± 0.6 µmol/mg/min. The “V max/K m” value in test [5] was 2.7.

On to `NC(=O)NC1NC(=O)NC1=O` (centres unmarked) [allantoin], for which, in test [5], the K m entry is given as “Not hydrolyzed” and the V max entry is listed as “Not hydrolyzed”. In test [3], the “IC50 range” value is “within the millimolar range” and the “Inhibitory effect on dihydropyrimidinase activity” value is recorded as “slightly inhibit; also recorded: only slightly inhibited”.

For the compound `O=C(O)CC1NC(=O)NC1=O` (centres unmarked) [5-hydantoin acetic acid], in test [3], the “IC50 range” value is on record as “within the millimolar range” and the “Inhibitory effect on dihydropyrimidinase activity” value is “only slightly inhibit”. Also, in test [3] (setting [11]), the IC50 is ~50000 µM.

For `[Cl][Cd][Cl]` [CdCl2], the “Effect of metal addition” value in test [4] (1 mM added to reaction mixture) is on record as “not useful”. For the same compound, the Specific activity in test [4] (setting [9]) came out at 0.74 ± 0.04 µmol/mg/min. The same compound showed a Fold in test [4] (setting [10]) of 0.9.

`[Ca+2].[Cl-].[Cl-]` [CaCl2]: the “Effect of metal addition” value in test [4] (1 mM added to reaction mixture) was “not useful”. Moreover, the Specific activity in test [4] (setting [9]) is 0.82 ± 0.05 µmol/mg/min. The compound further gave a Fold in test [4] (setting [10]) of 1.0.

In the case of `CCCC1NC(=O)NC1=O` (centres unmarked) [5-propyl-hydantoin], in test [5], the “Catalytic efficiency toward dihydrouracil higher than toward this substrate” value is given as 100 fold, the Fold was 0.01, the K m came out at 8100 ± 1500 µM and the V max is 1.2 ± 0.1 µmol/mg/min. For the same compound, in test [5], the “V max/K m” value came to 0.15.

As to `CC(=O)NO` [acetohydroxamate], in test [3], the “IC50 range” value is on record as “within the millimolar range” and the “Inhibitory effect on dihydropyrimidinase activity” value was “only slightly inhibit”.

For `O=C(O)c1cc(=O)[nH]c(=O)[nH]1` [orotic acid], in test [3], the “IC50 range” value is given as “within the millimolar range” and the “Inhibitory effect on dihydropyrimidinase activity” value is given as “slightly inhibit”.

With `O=C1CCNC(=O)N1` [dihydrouracil], in test [5], the Fold came out at 1.0, the K m stood at 700 ± 100 µM, the V max is 7.6 ± 0.4 µmol/mg/min and the “V max/K m” value turned out to be 10.9.

As for myricitrin, the “Inhibitory effect on dihydropyrimidinase activity” value in test [3] is reported as “No effect”.
